Laboratory results reported in patent US10689404B1, “Preparation method of tetraboronic acid compounds, and tetraboronic acid compounds” (Tamkang University, priority 2019, dated 2020).

Experiments:
Type in all cases: cell-based
[1] = test system: osteosarcoma cell U2OS; assay: Fluorescence microscopy with DAHMI sensor: entry of the tetraboronic acid compound into the cell nucleus; conditions: osteosarcoma cells, compound acting 24 hours, 1.0 mM DAHMI at 37° C. for 20 minutes, nuclei stained with TOTO-3
Experimental: (§1) The tetraboronic acid compound prepared by the preparation method is subjected to a biological experimental test for further discussing the application of the tetraboronic acid compound as a potential drug of the BNCT. Since the BNCT is mainly used for a head and neck cancer, the experiments are performed using osteosarcoma cell U2OS as a material.
(§2) By utilizing the characteristics that a fluorescence sensor (DAHMI) is stably bonded to boric acid, and a complex compound thereof can emit blue fluorescence, whether the tetraboronic acid compound enters cells or not is observed. The tetraboronic acid compound is firstly added to the osteosarcoma cells to act for 24 hours. Next, after the tetraboronic acid compound is washed away, the fluorescence sensor DAHMI is added and soaked for 20 minutes, and the cells are cleaned with phosphate buffered saline (PBS). Finally, the cell nuclei are stained with a TOTO™-3 dye or the mitochondria are stained with a Mito tracker Green FM dye, and the cells are observed under a fluorescence microscope (Model: Leica DM2500 & DM2500 LED Optical microscopes), and the results are shown in FIG. 2.
Referring to FIG. 2, FIG. 2 is a cell fluorescence micrograph of a tetraboronic acid compound entering osteosarcoma cells according to one embodiment of the present invention. […]

[2] = test system: osteosarcoma cell U2OS; assay: Fluorescence microscopy with DAHMI sensor: accumulation in mitochondria versus BPA; conditions: osteosarcoma cells, mitochondria stained with Mito tracker Green FM
Experimental: as §1, §2
Referring to FIG. 3, FIG. 3 is a cell fluorescence micrograph of a tetraboronic acid compound and a clinical drug boronophenylalanine (BPA) according to one embodiment of the present invention.

[3] = test system: osteosarcoma cell U2OS; assay: Flow cytometry of DAHMI fluorescence content (boron compound content in cells); conditions: for Fluorescence content relative to the clinical drug boronophenylalanine: 2.0 mM, ratio to BPA; for Fluorescence content: boron compound 2.0 mM, DAHMI sensor, flow cytometer
Experimental: as §1
The content of the boron atoms in the osteosarcoma cells is further analyzed, and the fluorescence sensor DAHMI in the cells is excited by a flow cytometer (Model: Thermo Fisher Scientific Attune™ NxT Flow Cytometer) to detect the fluorescence content, thereby analyzing the content of the boron compound bonded to the fluorescence sensor DAHMI. After the osteosarcoma cells are treated with the clinical drug boronophenylalanine (BPA), B3 and B9 respectively, the fluorescence content is detected by the flow cytometer.

Structure (SMILES) | Entry into the cell nucleus (blue DAHMI fluorescence brightness, FIG. 2) [1] | Accumulation in the mitochondria (DAHMI fluorescence brightness level compared with BPA, FIG. 3) [2] | Fluorescence content relative to the clinical drug boronophenylalanine [3] [times] | Fluorescence content [3] [A.u.]
O=C(NCc1ccc(B(O)O)cc1)C(c1cccc(B(O)O)c1)N(C(=O)c1ccc(B(O)O)cc1)c1ccc(B(O)O)cc1 (centres unmarked) [Example B3] | enter the cell nucleus more easily than other compounds | more capable of accumulating in the mitochondria than clinical BPA | 1.95 | 4831
O=C(NCc1ccc(B(O)O)cc1F)C(c1cc(B(O)O)ccc1F)N(C(=O)c1ccc(B(O)O)cc1F)c1ccc(B(O)O)cc1 (centres unmarked) [Example B9] | enter the cell nucleus more easily than other compounds | more capable of accumulating in the mitochondria than clinical BPA | 1.44 | 3568
